Experiments:
Assay type in all cases: functional, Homo sapiens
Conditions in all cases: Homo sapiens, read-out: Cell Viability; for viability at 10 µM: Concentration 10 uM; for viability at 1 µM: Concentration 1 uM
Colon cancer organoid [1] = test: Targeting of F14 CAF-induced therapy resistance in O23 CRC organoid-stroma co-culture. Cell viability is reported with Gefitinib.
Colon cancer organoid [2] = test: Targeting of F14 CAF-induced therapy resistance in O14 CRC organoid-stroma co-culture. Cell viability is reported without Gefitinib.
Colon cancer organoid [3] = test: Targeting of F14 CAF-induced therapy resistance in O23 CRC organoid-stroma co-culture. Cell viability is reported without Gefitinib.
Colon cancer organoid [4] = test: Targeting of F14 CAF-induced therapy resistance in O23 CRC organoid-stroma co-culture. Cell viability is reported with SN-38.
Colon cancer organoid [5] = test: Targeting of F14 CAF-induced therapy resistance in O14 CRC organoid-stroma co-culture. Cell viability is reported with Gefitinib.

Row | SMILES | viability at 10 µM (Colon cancer organoid [1]) | viability at 10 µM (Colon cancer organoid [2]) | viability at 10 µM (Colon cancer organoid [3]) | viability at 10 µM (Colon cancer organoid [4]) | viability at 10 µM (Colon cancer organoid [5]) | viability at 1 µM (Colon cancer organoid [1]) | viability at 1 µM (Colon cancer organoid [2]) | viability at 1 µM (Colon cancer organoid [3]) | viability at 1 µM (Colon cancer organoid [4]) | viability at 1 µM (Colon cancer organoid [5])
1 | CCOC(=O)CCNc1cc(N2CCc3ccccc3CC2)nc(-c2cccnc2)n1 | 90.8% | 60.1% | 140% | 79.9% | 57.2% | – | – | – | – | –
2 | COCc1nc2cnc3cc(-c4c(C)noc4C)c(OC[C@H]4CCNC4)cc3c2n1[C@H](C)c1ccccc1 [GSK778] | 47.2% | 40% | 95.6% | 48.8% | 8.04% | – | – | – | – | –
3 | C[C@H]1CCCN1Cc1nc2cc(NC(=O)c3ccc4cnccc4c3)ccc2[nH]1 | 26.6% | 53.7% | 68.1% | 43.3% | 37.4% | – | – | – | – | –
4 | Cc1nnc2c3ccccc3c(N[C@@H](C)[C@H](c3ccccc3)N(C)C)nn12 | 55.2% | 69.8% | 119% | 141% | 53.6% | – | – | – | – | –
5 | O=C(CCCCCCNC(=O)c1cnc(N(c2ccccc2)c2ccccc2)nc1)NO [RICOLINOSTAT] | 81.3% | 141% | 108% | 43.7% | 83% | – | – | – | – | –
6 | O=C([C@@H](Cc1cccc(C(F)(F)F)c1)NS(=O)(=O)c1cc(F)c2c(c1)CCNC2)N1CCCC1 | 55.1% | 114% | 81.5% | 60.3% | 65% | – | – | – | – | –
7 | CNC(=O)c1ccc(Nc2ncc(C(F)(F)F)c(NCc3nccnc3N(C)S(C)(=O)=O)n2)cc1 [DEFACTINIB] | 40.5% | 76.8% | 78.6% | 39.9% | 17.9% | – | – | – | – | –
8 | O=C(NNS(=O)(=O)c1ccccc1)c1cc(-c2ccnnc2)ccc1F [WM-2474] | 61.3% | 77.4% | 75.6% | 54.2% | 30.5% | – | – | – | – | –
9 | CCC(=O)N[C@H]1CC[C@@H](C(=O)N(C)c2ccc(-c3nc4ccccc4o3)cc2)C1 [BI 99179] | 82% | 48.5% | 168% | 124% | 44.8% | – | – | – | – | –
10 | Cc1cc(CN)cc(C)c1-c1ncn(C)c1-c1cncn1C | 73.9% | 112% | 112% | 87.1% | 80.2% | – | – | – | – | –
11 | CC(C)N(CCCNC(=O)Nc1ccc(C(C)(C)C)cc1)C[C@H]1O[C@@H](n2cc(Br)c3c(N)ncnc32)[C@H](O)[C@@H]1O | 34% | 69.6% | 41.3% | 19.8% | 45.4% | – | – | – | – | –
12 | COc1cc(N(C)c2ccnc3ccc(C(F)(F)F)cc23)cc(OC)c1OC | 69.7% | 109% | 135% | 64.7% | 50.1% | – | – | – | – | –
13 | N#CN1CC[C@H](C(=O)Nc2nc3c(s2)CN(C(=O)CN=[N+]=[N-])CC3)C1 [8RK64] | 43.1% | 105% | 108% | 40.9% | 33.4% | – | – | – | – | –
14 | CCOC(=O)CCNc1cc(N2CCc3ccccc3CC2)nc(-c2ccccn2)n1 | 59.2% | 93.3% | 155% | 121% | 59.5% | – | – | – | – | –
15 | Cc1c(Nc2ccc(S(=O)(=O)N3CCN(C)CC3)cc2F)nc2ccc(-c3cnn(C4CC4)c3)cn2c1=O | 88.9% | 51.6% | 153% | 85.7% | 69.8% | – | – | – | – | –
16 | C[C@H]1CC(=O)Nc2cc(C(=O)NCCC3CC3)ccc2N1C(=O)N1CC2CC2C1 (stereo not given in full) | 142% | 108% | 196% | 160% | 59.8% | – | – | – | – | –
17 | COc1cc(C(=O)N2CC[C@@H](O)[C@@H](N)C2)cc2nc(-c3cc4ccccc4n3CC3CC3)n(C)c12 | 73.5% | 107% | 112% | 75.5% | 58.8% | – | – | – | – | –
18 | C[C@H](c1ccc(F)cc1)N(Cc1cccc(C(=O)O)c1)C(=O)c1cnc2ccccc2c1 [PF-05105679] | 45.6% | 126% | 104% | 98.3% | 61.2% | – | – | – | – | –
19 | O=C1c2ccc(Nc3ccc(F)cc3F)cc2CCc2ccc(OC[C@H](O)CO)cc21 [Skepinone-L] | 72.8% | 153% | 143% | 77.4% | 56.2% | – | – | – | – | –
20 | CS(=O)(=O)N1CCCC(NC(=O)[C@H](CCC2CCCCC2)NC(=O)c2ccc(CNC(=O)c3cnc4ccccn34)cc2)C1 (stereo not given in full) [SR-302] | – | – | – | – | – | 69.8% | 101% | 126% | 54.1% | 37.1%

Row | SMILES | viability at 10 µM (Colon cancer organoid [1]) | viability at 10 µM (Colon cancer organoid [2]) | viability at 10 µM (Colon cancer organoid [3]) | viability at 10 µM (Colon cancer organoid [4]) | viability at 10 µM (Colon cancer organoid [5]) | viability at 1 µM (Colon cancer organoid [1]) | viability at 1 µM (Colon cancer organoid [2]) | viability at 1 µM (Colon cancer organoid [3]) | viability at 1 µM (Colon cancer organoid [4]) | viability at 1 µM (Colon cancer organoid [5])
21 | Cc1c(NC(=O)COc2ccc(Cl)cc2C(=O)c2cc(F)cc(C(F)(F)F)c2)ccc(C(=O)O)c1F [BI 2540] | 79.4% | 124% | 132% | 67.8% | 64.5% | – | – | – | – | –
22 | CCS(=O)(=O)c1cc2cc(C[C@](O)(CC(C)(C)c3ccc(F)cc3C(N)=O)C(F)(F)F)[nH]c2cn1 [BI 653048] | 68.4% | 100% | 161% | 110% | 42.7% | – | – | – | – | –
23 | CNCc1ccccc1-c1csc([C@H](C)Nc2nc(C)nc3cc(OC)c(OC)cc23)c1 [BAY-294] | – | – | – | – | – | 46.4% | 102% | 137% | 89% | 66.5%
24 | C=CC(=O)Nc1ccc2[nH]c(=O)n(C3CCN(Cc4ccc(-c5ccc6c(c5)NC(=O)CO6)cc4)CC3)c2c1 [RL2578] | 55.4% | 101% | 106% | 65.6% | 33.2% | – | – | – | – | –
25 | CC1=CC(C)=[N+]2C1=C(CCCCc1cn(CC(=O)N3CCc4nc(NC(=O)[C@H]5CCN(C#N)C5)sc4C3)nn1)c1c(C)cc(C)n1[B-]2(F)F | 36.4% | 115% | 101% | 52.6% | 31.6% | – | – | – | – | –
26 | C=CC(=O)Nc1ccc2[nH]c(=O)n(C3CCN(Cc4ccc(-c5nc6cc[nH]c(=O)c6cc5-c5ccccc5)cc4)CC3)c2c1 [Borussertib] | 7.88% | 28.5% | 9.17% | 10.6% | 14.3% | – | – | – | – | –
27 | CN1CCN(c2ccnc(NCCc3ccccc3)n2)CC1 [TP-040n] | 100% | 192% | 177% | 89.4% | 66.3% | – | – | – | – | –
28 | CN(C)C(=O)/C(C#N)=C/c1ccc(-c2nc3cnc4c(ccn4C)c3n2C2CCCCC2)o1 | 53.6% | 107% | 83.6% | 46.5% | 63.9% | – | – | – | – | –
29 | O=C(NC[C@H](O)CN1CCc2ccccc2C1)c1ccnc(NC2CCC2)c1 | 43.2% | 32.6% | 83.1% | 50.6% | 31.9% | – | – | – | – | –
30 | CN(C)[C@H]1CN(C2CCc3cccc(F)c32)C[C@@H]1c1ccc(N2CCN(S(C)(=O)=O)CC2)cc1 (stereo not given in full) | 107% | 70.2% | 81.8% | 112% | 68.1% | – | – | – | – | –
31 | O=C(Nc1cnc(Oc2ccc(F)cc2)nc1)N1CCc2ncccc2[C@@H]1c1ccc(F)cc1 [BAY-899] | 63.6% | 98.8% | 223% | 59.1% | 39.4% | – | – | – | – | –
32 | CN(C)CC#Cc1ccc(OCCCc2sc(N3CCc4cccc(C(=O)Nc5nc6ccccc6s5)c4C3)nc2C(=O)O)c(F)c1 [A-1155463] | 2.66% | 61.6% | 5.72% | 0.449% | 21.1% | – | – | – | – | –
33 | CC(=O)Nc1nc(CN2CCC[C@H](Cc3cc(C)nc(C)c3)C2)cs1 [JNJ-73924149] | 79.3% | 109% | 125% | 79.9% | 46.2% | – | – | – | – | –
34 | CN(c1ccnc(CNc2nc(Nc3ccc4c(c3)CC(=O)N4)ncc2C(F)(F)F)n1)S(C)(=O)=O [PF-00911705] | – | – | – | – | – | 34.6% | 87% | 87.4% | 73.5% | 48%
35 | Cn1cncc1[C@@](O)(COc1ccc(C#N)cc1-c1ccc(OC(F)(F)F)cc1)c1ccc(C#N)cc1 [A-108] | 69.3% | 108% | 131% | 112% | 47.8% | – | – | – | – | –
36 | Cc1noc(C)c1-c1cnc2c(-c3ccc(C(=O)O)cc3)cn([C@@H](C)c3ccccn3)c2c1 [PLX-51107] | 78.8% | 17.8% | 109% | 62.8% | 6.08% | – | – | – | – | –
37 | O=C(O)c1cc(-c2ccc(C3CCNCC3)cc2)c2ccc(-c3ccc(C(F)(F)F)cc3)cc2c1 | 47.6% | 77% | 165% | 60.3% | 34.4% | – | – | – | – | –
38 | C[C@@H]1CN(c2cc(-c3nn(C)c4ccc(OC5(C)CC5)cc34)ncn2)C[C@H](C)O1 [MLi-2-NC] | 40.9% | 77.2% | 107% | 62.4% | 28.6% | – | – | – | – | –
39 | COc1cc(-c2cn(C)c(=O)c3cnccc23)c(OC)cc1CN(C)C | 31.8% | 95.6% | 55.4% | 44.2% | 53% | – | – | – | – | –

Reference: ChEMBL document CHEMBL5608113, “Targeting of CAF-induced therapy resistance in CRC organoid-stroma co-cultures” (2024)
